{"source": "patent US20240122930A1", "about": "“INTEGRIN INHIBITORS AND USES THEREOF IN COMBINATION WITH OTHER AGENTS” (Pliant Therapeutics, Inc., priority 2022, published 2024)", "key": {"[1]": {"test_system": "integrin beta-6 (ITGB6)", "assay": "Phase 2a clinical trial: plasma integrin beta-6", "type": "in vivo, human", "conditions": "IPF participants; greatest effect at 320 mg", "text": "Med. 2022 June; 10(6):593-602, which is incorporated herein by reference in its entirety. […] Res. 2019 Jul. 12; 20(1):148, which is incorporated herein by reference in its entirety. ** denotes that p<0.01 vs placebo. LS refers to Least Squares. SE refers to Standard Error. Integrin beta-6 data was reported in relative quantitation log2 scale."}, "[2]": {"test_system": "lung Col1a1 expression", "assay": "Precision cut lung slices, chronic bleomycin exposure, Col1a1 expression", "type": "cell-based, mice (C57BL/6)", "conditions": "chronic bleomycin PCLS, 7 days culture", "experimental": "Mice (C57BL/6) were administered 3 U/kg of bleomycin (Teva Pharmaceuticals; North Wales, PA) on Day 0 and 1 U/kg of bleomycin on days 14, 28, 42 and 56 via oropharyngeal aspiration while under anesthesia. At day 70, 14 days after the final bleomycin insult, precision cut lung slices were obtained. […] The lobes were then subjected to precision slicing to obtain samples for culture using a microtome (Compresstome VF-300-OZ, Precisionary; Greenville, NC). Individual slices were distributed in a multiwell culture plate and cultured for 7 days under control (DMSO) and test compound conditions. The viability of the slices over the course of culturing was confirmed by WST-1 assay of mitochondrial activity. […] Compound 5; and the small molecule ALK5 inhibitor. […] Compound 5 was run at approximate IC50 for inhibition of TGF-beta activation by αVβ6."}, "[3]": {"assay": "αVβ6 target engagement by [18F]FP-R01-MG-F2 PET/CT in participants with IPF", "type": "in vivo, human", "design": "Vt / Vs (Vt − VND): unit not given here", "conditions": "human, plasma; Subject C, 320 mg; read-out: Conc (Unbound Plasma Concentration)", "experimental": "(§1) The aim of this Example is to assess target engagement of the disclosed compounds to αVβ6 in human participants with IPF using [^18F]FP-R01-MG-F2 PET/computerized tomography (CT) imaging.\n(§2) This Example was conducted as an open-label, single-dose (60 mg, 120 mg, 240 mg or 320 mg) clinical trial evaluating αVβ6 receptor occupancy in the lungs, safety, and pharmacokinetics of Compound #5 in subjects with IPF. To date, 4 participants have completed the study. Each of these 4 participants was undergoing a pre-existing course of therapy using one of the SoC (Standard of Care) compounds, nintedanib. These participants continued their pre-existing nintedanib therapy throughout this study. Knottin tracer uptake kinetics were compared pre- and post-dose of the disclosed compound, as measured by standardized uptake values (SUVs) and parameters estimated from kinetic modeling in regions-of-interest on dynamic [^18F]FP-R01-MG-F2 PET/CT scans. […] Receptor occupancy was estimated from the output of the two-compartment model (VT, the […]) using standard equations and fitting algorithms, and corrections for VND (non-displaceable tracer binding). For example, in FIG. 10, the data points, shown as circles, are modeled by the following formula: […]\n(§3) Five subjects with IPF were enrolled: Subject A received a single dose of 60 mg of the disclosed compound followed by a post-dose scan. Subject B received two doses of the disclosed compound separated by two weeks, 120 mg and 240 mg, each followed by a post-dose scan. Subject C received two doses of the disclosed compound separated by two weeks, 240 mg and 320 mg, each followed by a post-dose scan. Subject D received a single dose of 320 mg of the disclosed compound followed by a post-dose scan."}, "[4]": {"molecular_target": "T1, αVβ6 (Homo sapiens, UniProt P06756+P18564)", "T1 construct": "clinical trial evaluating αVβ6 receptor occupancy in the lungs; from tissue; host or cells: lungs of human participants with IPF (in vivo PET/CT)", "T1 sequence (P06756 31-1048)": "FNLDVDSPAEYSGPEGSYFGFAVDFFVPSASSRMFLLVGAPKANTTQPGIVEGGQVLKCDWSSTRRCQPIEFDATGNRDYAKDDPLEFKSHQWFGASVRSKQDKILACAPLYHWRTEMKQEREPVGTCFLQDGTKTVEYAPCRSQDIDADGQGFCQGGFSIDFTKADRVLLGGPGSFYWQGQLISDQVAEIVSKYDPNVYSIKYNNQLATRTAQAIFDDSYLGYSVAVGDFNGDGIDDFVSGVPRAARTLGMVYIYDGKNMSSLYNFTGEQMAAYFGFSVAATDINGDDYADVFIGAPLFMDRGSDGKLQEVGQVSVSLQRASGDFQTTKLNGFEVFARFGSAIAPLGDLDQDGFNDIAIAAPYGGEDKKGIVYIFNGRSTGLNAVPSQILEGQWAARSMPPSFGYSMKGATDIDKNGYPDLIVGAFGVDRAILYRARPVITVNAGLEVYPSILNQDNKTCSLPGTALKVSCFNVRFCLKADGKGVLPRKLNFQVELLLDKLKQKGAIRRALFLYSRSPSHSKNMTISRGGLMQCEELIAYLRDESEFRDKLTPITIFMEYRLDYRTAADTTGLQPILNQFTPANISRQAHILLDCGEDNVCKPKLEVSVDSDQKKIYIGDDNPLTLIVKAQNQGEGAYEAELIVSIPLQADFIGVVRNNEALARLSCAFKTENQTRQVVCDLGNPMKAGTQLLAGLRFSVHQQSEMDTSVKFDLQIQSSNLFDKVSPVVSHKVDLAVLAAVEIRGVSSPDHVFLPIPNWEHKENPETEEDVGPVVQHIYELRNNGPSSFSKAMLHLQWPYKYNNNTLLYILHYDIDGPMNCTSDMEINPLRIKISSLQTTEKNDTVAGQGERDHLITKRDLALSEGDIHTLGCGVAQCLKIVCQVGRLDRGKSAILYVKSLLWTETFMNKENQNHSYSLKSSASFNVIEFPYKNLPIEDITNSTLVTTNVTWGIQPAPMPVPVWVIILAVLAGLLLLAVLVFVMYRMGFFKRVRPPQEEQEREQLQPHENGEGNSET", "T1 sequence (P18564 22-788)": "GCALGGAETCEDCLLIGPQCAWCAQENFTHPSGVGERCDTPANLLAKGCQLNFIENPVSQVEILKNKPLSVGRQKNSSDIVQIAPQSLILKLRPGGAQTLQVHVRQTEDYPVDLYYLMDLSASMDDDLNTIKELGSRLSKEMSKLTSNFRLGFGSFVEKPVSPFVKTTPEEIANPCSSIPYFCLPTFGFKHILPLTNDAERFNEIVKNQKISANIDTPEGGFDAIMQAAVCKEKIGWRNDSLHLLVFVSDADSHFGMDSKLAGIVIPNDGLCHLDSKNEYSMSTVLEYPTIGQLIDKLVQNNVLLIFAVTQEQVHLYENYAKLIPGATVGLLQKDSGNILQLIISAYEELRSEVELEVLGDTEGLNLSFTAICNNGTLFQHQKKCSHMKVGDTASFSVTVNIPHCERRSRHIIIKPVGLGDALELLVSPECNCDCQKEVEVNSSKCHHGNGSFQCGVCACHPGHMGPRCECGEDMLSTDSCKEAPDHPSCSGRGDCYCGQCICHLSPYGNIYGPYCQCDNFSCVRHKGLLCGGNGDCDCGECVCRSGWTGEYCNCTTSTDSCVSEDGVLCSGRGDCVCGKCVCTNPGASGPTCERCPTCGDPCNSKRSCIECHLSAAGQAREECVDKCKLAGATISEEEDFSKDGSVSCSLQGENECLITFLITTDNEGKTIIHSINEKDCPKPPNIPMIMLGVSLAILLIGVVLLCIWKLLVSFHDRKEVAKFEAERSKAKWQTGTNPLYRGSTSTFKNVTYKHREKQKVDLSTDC", "assay": "αVβ6 target engagement by [18F]FP-R01-MG-F2 PET/CT in participants with IPF", "type": "in vivo", "design": "Vt / Vs (Vt − VND): unit not given here", "conditions": "for Vs (Vt − VND): VND = 0.66", "experimental": "as §1, §2, §3"}, "[5]": {"test_system": "participants with idiopathic pulmonary fibrosis (IPF)", "assay": "Phase 2a clinical trial: patient-reported cough severity visual analog scale (VAS)", "type": "in vivo, human", "conditions": "320 mg, weeks 12 and 24, ITT; worsening on placebo", "experimental": "Of interest, patients receiving Compound 5 experienced a positive impact on cough severity, while cough severity in patients receiving placebo worsened over time. […] The data histograms from left to right are 320 mg Compound 5 treatment at week 12, 320 mg Compound 5 treatment at week 24, placebo treatment at week 12, and placebo treatment at week 24. […] Cough VAS measured patient reported cough severity over last 2 weeks on scale of 0-100 mm."}, "[6]": {"test_system": "participants with idiopathic pulmonary fibrosis (IPF)", "assay": "Phase 2a clinical trial ([…]-IPF): Forced Vital Capacity (FVC) spirometry", "type": "in vivo, human", "experimental": "Study Design and Objectives. […] At Day 1, baseline values were collected.\nData shown from left to right is participants treatment with 40 mg Compound 5, 80 mg Compound 5, 160 mg Compound 5, all participants treated with Compound 5, and participants treated with Placebo. Change from baseline was analyzed using a mixed model for repeated measures with terms for treatment group, SOC (Y/N), visit, baseline value, and treatment-by-visit interaction. An unstructured covariance (UN) structure was used.\n[…]-IPF study design and objectives.\nThe histograms from left to right are 40 mg (n=22) with a LS Mean (SE) change from Baseline in FVC (mL) at Week 12 of −48.6, 80 mg (n=23) with a LS Mean (SE) change from Baseline in FVC (mL) at Week 12 of 22.8, 160 mg (n=22) with a LS Mean (SE) change from Baseline in FVC (mL) at Week 12 of −28.7, 320 mg (n=21) with a LS Mean (SE) change from Baseline in FVC (mL) at Week 12 of 26.8, and placebo (n=31) with a LS Mean (SE) change from Baseline in FVC (mL) at Week 12 of −64.2. Change from baseline in FVC analyzed using a mixed model for repeated measures (MMRM) with terms for treatment group, use of SOC, week and baseline value. FVC=Forced Vital Capacity. mITT=Modified Intent to Treat. * p<0.05. **p<0.01.\nAt Day 1, baseline values were collected."}, "[7]": {"conditions": "% target engagement fit of FIG. 10"}}, "note": "Entries after “also recorded” stand apart in the source; their conditions may differ."}
{"compound": "COCCN(CCCCc1ccc2c(n1)NCCC2)CC[C@H](Nc1ncnc2ccccc12)C(=O)O", "note": "[Compound 5, (S)-4-((2-methoxyethyl) (4-(5,6,7,8-tetrahydro-1,8-naphthyridin-2-yl)butyl)amino)-2-(quinazolin-4-ylamino) butanoic acid]", "values": [{"measurement": "Circulating (plasma) integrin beta-6 levels relative to placebo", "setting": "[1]", "result": "reduced"}, {"measurement": "lung Col1a1 expression, normalized to DMSO control slices", "setting": "[2]", "result": "decreased lung Col1a1 expression substantially"}, {"measurement": "concentration at 4 h", "setting": "[3]", "result": 98.5, "unit": "nM"}, {"measurement": "decrease of the volume of distribution of the knottin radiotracer in the lungs", "setting": "[4]; 60 mg dose", "result": "approximately 50%"}, {"measurement": "decrease of the volume of distribution of the knottin radiotracer in the lungs", "setting": "[4]; 240 and 320 mg doses", "result": "greater than 95%"}, {"measurement": "best-fit bottom value", "setting": "[4]; [7]", "result": 0}, {"measurement": "best-fit hillslope value", "setting": "[4]; [7]", "result": 1.11}, {"measurement": "best-fit top value", "setting": "[4]; [7]", "result": 87.4}, {"measurement": "Conc (Unbound Plasma Concentration)", "setting": "[4]; Subject A, 60 mg", "result": 3.66, "unit": "nM"}, {"measurement": "Vt", "setting": "[4]; Subject A, post-dose 60 mg", "result": 1.84}, {"measurement": "Vs (Vt − VND)", "setting": "[4]; Subject A, post-dose 60 mg", "result": 1.18}, {"measurement": "Conc (Unbound Plasma Concentration)", "setting": "[4]; Subject B, 120 mg", "result": 10, "unit": "nM"}, {"measurement": "%DeltaVt", "setting": "[4]; Subject B, 120 mg, corrected for non-displaceable binding", "result": 59.76, "unit": "%"}, {"measurement": "Conc (Unbound Plasma Concentration)", "setting": "[4]; Subject B, 240 mg", "result": 58.3, "unit": "nM"}, {"measurement": "Vt", "setting": "[4]; Subject B, post-dose 120 mg", "result": 1.65}, {"measurement": "Vs (Vt − VND)", "setting": "[4]; Subject B, post-dose 120 mg", "result": 0.99}, {"measurement": "Vt", "setting": "[4]; Subject B, post-dose 240 mg", "result": 0.72}, {"measurement": "Vs (Vt − VND)", "setting": "[4]; Subject B, post-dose 240 mg", "result": 0.06}, {"measurement": "Conc (Unbound Plasma Concentration)", "setting": "[4]; Subject C, 240 mg", "result": 103, "unit": "nM"}, {"measurement": "Vt", "setting": "[4]; Subject C, post-dose 240 mg", "result": 0.98}, {"measurement": "Vs (Vt − VND)", "setting": "[4]; Subject C, post-dose 240 mg", "result": 0.32}, {"measurement": "Vt", "setting": "[4]; Subject C, post-dose 320 mg", "result": 0.85}, {"measurement": "Vs (Vt − VND)", "setting": "[4]; Subject C, post-dose 320 mg", "result": 0.19}, {"measurement": "Conc (Unbound Plasma Concentration)", "setting": "[4]; Subject D, 320 mg", "result": 33.6, "unit": "nM"}, {"measurement": "Vt", "setting": "[4]; Subject D, post-dose 320 mg", "result": 0.75}, {"measurement": "Vs (Vt − VND)", "setting": "[4]; Subject D, post-dose 320 mg", "result": 0.09}, {"measurement": "Receptor occupancy", "setting": "[4]; at pharmacologically relevant plasma concentrations", "result": "> 95", "unit": "%"}, {"measurement": "concentration at which the exposure response saturates", "setting": "[4]; drug exposure at 4 hours, approaching 100% receptor occupancy", "result": "about 100 nM"}, {"measurement": "EC50", "setting": "[4]; unbound plasma concentration vs % target engagement, 4-parameter non-linear regression (FIG. 10), read-out: best-fit EC50", "result": 2.96, "unit": "nM"}, {"measurement": "Patient-reported cough severity (VAS), change from baseline", "setting": "[5]", "result": "reduced"}, {"measurement": "LS Mean (SE) change from Baseline in FVC at Week 12, mITT, FIG. 27", "setting": "[6]; 40 mg (n=22), placebo (n=31) −64.2", "result": -48.6, "unit": "mL"}, {"measurement": "Treatment effect on FVC with and without use of standard-of-care agents", "setting": "[6]; 12 weeks", "result": "evident; also recorded: observed"}]}
